Data on 15 compounds can be found in PMC12297039, “Design, Synthesis, and Evaluation of Cytotoxic Effects of Functional Fatty Acid Derivatives as Potential Antineoplastic Agents for Breast Cancer” (Iranian Journal of Pharmaceutical Research : IJPR, 2025).

Read-outs that look alike come from different tables or passages of the source.

For assay [1], the system named is human dermal fibroblasts (HDFs). Description: MTT cytotoxicity assay on normal human dermal fibroblasts (HDFs). Type of assay: cell-based. The note with it: read-out: HDF EC50 (μM) ± SE. As to the method:
(§1) The cytotoxic effects of DHA and LA derivatives against the breast cancer cell line (MCF-7) were assessed, with results compared to human dermal fibroblasts (HDFs) as a normal cell line. Both cell lines were provided by the Pasteur Institute of Iran (IPI). The cells were cultured in RPMI medium containing 10% fetal bovine serum (FBS) and 1% antibiotic solution (comprising 10,000 units of penicillin and 10 mg streptomycin in 0.9% NaCl). The cultures were incubated at 37°C with 5% CO2.
(§2) The MTT assay was used as a standard method for evaluating the inhibitory effect of compounds. This colorimetric assay is based on the conversion of yellow MTT (3-[4,5-dimethylthiazol-2-yl]-2,5-diphenyltetrazolium bromide) to purple formazan crystals via enzymatic reduction by NAD(P)H-dependent oxidoreductase enzymes in metabolically active cells ([35]). According to a previously reported method, after 24 hours of incubation of cells (15,000 cells per well), six different concentrations of D1-D8 (6.25 to 200 μM) and L1-L8 (3.125 to 100 μM) were added to the wells, with each concentration performed in triplicate. After 48 hours of incubation, the culture medium was completely removed from the wells. MTT solution, prepared at a concentration of 0.5 mg/mL in phosphate-buffered saline (PBS), was added (100 µL per well) and incubated for 4 hours to allow metabolically active cells to reduce the MTT to insoluble formazan crystals. Subsequently, 100 µL of solubilizing solvent containing 16% sodium dodecyl sulfate (SDS) was added to each well, followed by an additional 2 hours of incubation ([36]). Cell viability was determined using a Cell Imaging Multi-Mode Microplate Reader (Biotek, Cytation 3, USA), measuring absorbance at 570 nm ([37], [38]).
Background: Tetrazolium dyes change colour on reduction, which living cells bring about.

In assay [2] the test system is MCF-7 cells. Description: Annexin V-FITC/PI flow cytometry, apoptosis and necrosis. The following applies: MCF-7, annexin V-FITC/PI staining, ½x, x, 2x EC50. The assay is classed as cell-based, human. The protocol:
Apoptosis and necrosis were measured using a dead cell apoptosis kit with annexin V-FITC and propidium iodide (PI) (ApoFlowExFITC, Exbio, Czech Republic) according to the manufacturer’s protocol. The MCF-7 cells were cultured as described in the cell culture section (section 3.3.1). […] Cells were collected through trypsinization, rinsed twice with PBS, and then resuspended in 500 μL of binding buffer. The cell suspensions were subsequently incubated with 5 μL of annexin V-FITC and 5 μL of PI for 10 minutes at room temperature in a dark environment. The cells were then assessed immediately using flow cytometry, and the data were analyzed using FlowJo version 7.6.5 (Tree Star, Inc., Ashland, USA).
A distinguishing characteristic of cells undergoing apoptosis is the translocation of phosphatidylserine from the inner to the outer layers of the plasma membrane, which can be identified by annexin V in this assay. The PI identifies necrotic cells with compromised plasma membranes ([39]-[44]).

The test system of assay [3] is MCF-7 cells. The experiment in a line: MTT cytotoxicity assay on breast adenocarcinoma (MCF-7) cells. The assay is classed as cell-based, human. The note with it: for EC50: read-out: MCF-7 EC50 (μM) ± SE; for Selectivity Index (SI), MCF-7: ratio of EC50 against fibroblasts to EC50 against MCF-7 cells. As to the method: as §1, §2
Another assay concerns MCF-7 breast cancer cell. Also noted: method as in PMID 31652764. The following applies: MCF-7, MTT assay, 150 μM DHA; cited from earlier work.
Where [4] appears, read: Fibroblast, MTT, 48 h incubation, normal human dermal fibroblasts.
The mark [5] stands for this setting: Homo sapiens, MCF7, MTT, 48 h incubation, MCF-7.

As a reminder, the EC50 is the concentration at which the effect is half-maximal. “4-((4Z,7Z,10Z,13Z,16Z,19Z)-docosa-4,7,10,13,16,19-hexaen-1-yl)morpholine [Compound D3]”: the half-maximal effective concentration (EC50) was above 100 µM in assay [1] (MTT, 48 h incubation, normal human dermal fibroblasts) and 16 ± 2.89 µM in the assay on MCF-7 cells [3] (MTT, 48 h incubation, MCF-7). Moreover, in the assay on MCF-7 cells [2], the “mode of cell death” value was “predominantly induced apoptosis rather than necrosis”.
Consider `CC/C=C\C/C=C\C/C=C\C/C=C\C/C=C\C/C=C\CCC(=O)NCCO` [Compound D1, (4Z,7Z,10Z,13Z,16Z,19Z)-N-(2-hydroxyethyl) docosa-4,7,10,13,16,19-hexaenamide], for which the EC50 in assay [1] (Homo sapiens, Fibroblast, 48 h) is at least 100 µM; with MCF-7 cells [3] (Homo sapiens, MCF7, 48 h) it was at least 100 µM.
Take `CC/C=C\C/C=C\C/C=C\C/C=C\C/C=C\C/C=C\CCC(=O)N(CCO)CCO` [Compound D2, (4Z,7Z,10Z,13Z,16Z,19Z)-N,N-bis(2-hydroxyethyl)docosa-4,7,10,13,16,19-hexaenamide]: the EC50 in assay [1] (setting [4]) was above 100 µM; with MCF-7 cells [3] (setting [5]), at least 100 µM.
Taken in the same sequence, the figures for `CC/C=C\C/C=C\C/C=C\C/C=C\C/C=C\C/C=C\CCC(=O)Nc1ccc(O)cc1` [Compound D4, (4Z,7Z,10Z,13Z,16Z,19Z)-N-(4-hydroxyphenyl)docosa-4,7,10,13,16,19-hexaenamide] were above 100 µM and 74.3 ± 1.41 µM.
Consider `CC/C=C\C/C=C\C/C=C\C/C=C\C/C=C\C/C=C\CCC(=O)NCCc1ccccc1` [Compound D5, (4Z,7Z,10Z,13Z,16Z,19Z)-N-phenethyldocosa-4,7,10,13,16,19-hexaenamide], for which the EC50 with MCF-7 cells [3] (setting [5]) is at least 100 µM.
For the compound `CC/C=C\C/C=C\C/C=C\C/C=C\C/C=C\C/C=C\CCC(=O)N1CCN(C)CC1` [Compound D6, (4Z,7Z,10Z,13Z,16Z,19Z)-1-(4-methylpiperazin-1-yl) docosa-4,7,10,13,16,19-hexaen-1-one], in the assay with MCF-7 cells [3] (setting [5]), the EC50 was at least 100 µM.
Take `CC/C=C\C/C=C\C/C=C\C/C=C\C/C=C\C/C=C\CCC(=O)NCC(O)CO` (stereo not shown) [Compound D7, (4Z,7Z,10Z,13Z,16Z,19Z)-N-(2,3-dihydroxypropyl) docosa-4,7,10,13,16,19-hexaenamide]: the EC50 in assay [1] (setting [4]) is above 100 µM; in the assay on MCF-7 cells [3] (setting [5]), 98.6 ± 1.19 µM.
Turning to `CC/C=C\C/C=C\C/C=C\C/C=C\C/C=C\C/C=C\CCC(=O)NCCN` [Compound D8, (4Z,7Z,10Z,13Z,16Z,19Z)-N-(2-aminoethyl) docosa-4,7,10,13,16,19-hexaenamide], the EC50 is above 100 µM in assay [1] (setting [4]) and 86 ± 5.41 µM with MCF-7 cells [3] (setting [5]).
Consider `CCCCC/C=C\C/C=C\CCCCCCCC(=O)NCCO` [Compound L1, (9Z,12Z)-N-(2-hydroxyethyl) octadeca-9,12-dienamide], for which, in the assay with MCF-7 cells [3] (setting [5]), the EC50 is at least 100 µM.
For the compound `CCCCC/C=C\C/C=C\CCCCCCCC(=O)N(CCO)CCO` [Compound L2, (9Z,12Z)-N,N-bis(2-hydroxyethyl) octadeca-9,12-dienamide], the concentration giving a half-maximal response (EC50) with MCF-7 cells [3] (setting [5]) is at least 100 µM.
As for `CCCCC/C=C\C/C=C\CCCCCCCC(=O)N1CCOCC1` [Compound L3, (9Z,12Z)-1-morpholinooctadeca-9,12-dien-1-one], the EC50 in assay [1] (setting [4]) is at least 100 µM; in the assay with MCF-7 cells [3] (setting [5]), 24.6 ± 1.81 µM. Besides, the “mode of cell death” value with MCF-7 cells [2] is listed as “predominantly induced apoptosis rather than necrosis”. The “Selectivity Index (SI), MCF-7” value in the assay on MCF-7 cells [3] amounted to 6.88.
Turning to `CCCCC/C=C\C/C=C\CCCCCCCC(=O)Nc1ccc(O)cc1` [Compound L4, (9Z,12Z)-N-(4-hydroxyphenyl) octadeca-9,12-dienamide], the EC50 in assay [1] (setting [4]) was at least 100 µM; in the assay on MCF-7 cells [3] (setting [5]) it was 52.4 ± 6.79 µM. For the same compound, the “Selectivity Index (SI), MCF-7” value in the assay on MCF-7 cells [3] turned out to be 3.53.
Turning to `CCCCC/C=C\C/C=C\CCCCCCCC(=O)NCC(O)CO` (stereo not shown) [Compound L7, (9Z,12Z)-N-(2,3-dihydroxypropyl) octadeca-9,12-dienamide], the EC50 in assay [1] (setting [4]) was 64.8 ± 5.72 µM; with MCF-7 cells [3] (setting [5]) it was 19.2 ± 2.93 µM. The “mode of cell death” value in the assay with MCF-7 cells [2] is listed as “predominantly induced apoptosis rather than necrosis”. For the same compound, in the assay on MCF-7 cells [3], the “Selectivity Index (SI), MCF-7” value is recorded as 3.37.
Take `CC/C=C\C/C=C\C/C=C\C/C=C\C/C=C\C/C=C\CCC(=O)O` [DHA, docosahexaenoic acid]: in the assay on MCF-7 breast cancer cell, the cell viability result is on record as “significantly reduced”.
Regarding `N.N.[Cl][Pt][Cl]` [cisplatin, reference compound], in the assay on MCF-7 cells [3] (MTT, 48 h incubation, MCF-7), the EC50 stood at 0.85 µM. Moreover, in the assay with MCF-7 cells [3], the “Selectivity Index (SI), MCF-7” value was found to be 1.18.
